For the assay, the system named is B6C3F1/J mice. Kind of assay: Large-scale lifespan screen of compounds in long-lived B6C3F1 hybrid mice. It is filed as in vivo, mouse. The settings on record: for extension of mean lifespan: 15 per compound, dosed from 5 months of age throughout lifespan, relative to untreated controls; for extension of maximal lifespan: maximal lifespan = average lifespan of the 20% longest-lived mice. From the text: The majority of compounds included drugs currently used in medicine and drug-like molecules, with wide range of targets that span the entire pharmacological space.
The compounds were clustered into 62 drug classes based on their mechanism of action or cellular target. Screening a wide range of known compounds could potentially resolve two challenges. First, to analyze how distinct drug classes with common mechanisms of action affect aging in mammals. Second, to determine with no bias or predispositions which of the current pharmacological drugs can extend lifespan.
In this study, the inventors used a strain of long-lived B6C3F1 hybrid mice (C57BL/6J♀×C3H/HeJ♂) with well-characterized aging dynamics (Lipman 1999, Turturro, 1999). […] Each treatment group included 15 female mice per compound, while 335 females were used as controls. Three additional control groups included 60 female mice on dietary restriction (60% ad libitum), 60 female mice on a purified diet, and 60 male mice as gender control. Each compound treatment and diet intervention were administered to mice starting at 5 months of age, and continued throughout their lifespan. The primary endpoint was mouse mortality, from which we calculated mean lifespan, maximal lifespan, and the onset of morbidity for each experimental group. To calculate the statistical significance, the mean lifespan, maximal lifespan, and the onset of morbidity for each individual compound and drug class were compared to the lifespan distribution of untreated mice. […]

Setting [1] is: B6C3F1/J mice, compared to the lifespan distribution of untreated mice.
[2] abbreviates: female B6C3F1/J mice, dosed from 5 months of age, relative to controls.

Where “and” joins values, the source holds several entries; their conditions need not be identical. Equal values may be shown once.

In the case of `C[C@@H]1O[C@@H](O[C@@H]2C=C3CC[C@@H]4[C@H](CC[C@]5(C)[C@@H](c6ccc(=O)oc6)CC[C@]45O)[C@@]3(C)CC2)[C@H](O)[C@H](O)[C@H]1O` [Proscillaridin A], the “effect on mean and/or maximal lifespan (in words)” value (shortened to “effect”) under setting [1] was “significantly extended”. The “extension of mean lifespan” value (female B6C3F1/J mice) is 16% and 16.4%. In addition, under setting [2], the “extension of onset of morbidity” value is 40% and 39.9%.

As for Inulin, the “effect” value under setting [1] was “significantly extended”. Besides, the “extension of mean lifespan” value (female B6C3F1/J mice) was 16%. Moreover, the “extension of maximal lifespan” value under setting [2] is given as 18%.

Take `[Mg+2].[OH-].[OH-]` [Magnesium Hydroxide]: for the setting “mouse, in vivo”, the “effect” value is on record as “significantly extended”.

On to `C[C@]12CC[C@@H]3c4ccc(O)cc4CC[C@H]3[C@@H]1CC[C@@H]2O` [17β-estradiol], for which the “effect” value under setting [1] is recorded as “significantly shortened”. Also, under setting [2], the “reduction of mean lifespan” value is 21%.

On to `O=C(O)CN(CCN(CC(=O)O)CC(=O)O)CCN(CC(=O)O)CC(=O)O` [Pentetic acid, diethylene triamene pentaacetic acid], for which the “effect” value under setting [1] is on record as “significantly extended”. Besides, the “extension of mean lifespan” value (female B6C3F1/J mice) was 16.1% and the “extension of mean lifespan” value (female B6C3F1/J mice, listed as pentetic acid) came to 16%.

In the case of `[Cl-].[Cl-].[Mg+2]` [Magnesium Chloride], the “effect” value (mouse, in vivo) is “significantly extended”.

Consider `CC(=O)[O-].CC(=O)[O-].[Mg+2]` [Magnesium Acetate], for which the “effect” value (mouse, in vivo) is given as “significantly extended”.

For the compound `CCOC(=O)C(C)(C)Oc1ccc(Cl)cc1` [Clofibrate], the “extension of maximal lifespan” value runs as follows: under setting [2], 20.9%; (female B6C3F1/J mice, dosed from 5 months of age, relative to controls, listed as clofibrate) 21%.

The record behind these values is patent publication US10653715B2, “Methods and compositions for extending lifespan” (priority 2016, dated 2020).
